According to US9492428B2, “Compounds, compositions, pharmaceutical compositions, and methods of use” (University of Louisville Research Foundation, Inc., priority 2011, dated 2016):

System: PC3 prostate cancer cells
Assay: MTT cell proliferation assay in PC3
Format: cell-based, human
Conditions: after three days of treatment
Description: FIG. 8. Cell proliferation assay. (A) DU145 or PC3 prostate cancer were plated at a density of 1,500 cells per well in 96-well plates and incubated 18 hours at 37° C. to allow adherence. They were untreated or treated by addition of different concentrations of compound I-1 (which were added directly to the medium) or vehicle (DMSO), and proliferation was measured using a 3-(4,5-dimethylthiazol-2-yl)-2,5-diphenyltetrazolium bromide MTT assay after 3 days of treatment. Points, mean of triplicate normalized samples to vehicle sample; bars, SE. (B) GI50 after 3 days of treatment. (C) Prostate cancer cells (DU145 or PC3) or a non-malignant epithelial cells (RWPE-1) were plated at a density of 1,000 cells per well in 96-well plates and incubated 18 hours at 37° C. to allow adherence. They were untreated or treated by addition of different concentrations of compound I-1 (added directly to the medium) or vehicle (DMSO), and proliferation was by MTT assay after 5 days of treatment. Points, mean of triplicate normalized samples to vehicle sample; bars, SE.
General Experimental Procedure. Compound I-1 was isolated as described in Example Set 1, above. For samples of compound I-1 used in Example Set 2, HPLC and NMR indicated a purity of at least 95%. All experiments described in Example Set 2 were repeated at least two or three times. […]

C[C@@H]1CC[C@H]2C3C(O[C@]4([C@]5(O)CC6(C)C(=O)OC5C[C@@]6(C)O)CC[C@@]31O4)[C@H]1O[C@]13CC=CC(=O)[C@]23C (stereo partly shown) [I-1]
concentration of maximum antiproliferative activity: 10 µM
